SMILES strings stand for the structures.

The values below come from paper PMC11213709, “De novo design of proteins housing excitonically coupled chlorophyll special pairs” (Nature Chemical Biology, 2024).

What all share (type): binding, synthetic construct
The target in one experiment is T1, SP2.
T1 construct: de novo designed C2-symmetric homodimer, two ZnPPaM per dimer
Put plainly: X-ray crystal structure at […] Å; CD titration (Kd1 […], Kd2 […]); absorption titration (Kd1 […], Kd2 […]); fluorescence titration ([…]).

A further experiment concerns the target T2, SP3.
T2 construct: de novo designed C2-symmetric homodimer, two ZnPPaM per dimer
The experiment can be described thus: CD titration (Kd1 […], Kd2 […]); absorption titration (Kd1 […], Kd2 […]); fluorescence titration ([…]).

Another experiment has as its target T3, SP1.
T3 construct: de novo designed C2-symmetric homodimer, two ZnPPaM per dimer
The experiment can be described thus: X-ray crystal structure at […] Å; absorption titration (Kd1 […], Kd2 […]); fluorescence titration ([…]).

Consider `C=Cc1c(C)c2[n]3c1=CC1=NC(=Cc4c(C)c5c([n]4[Zn]3)C(=C3N=C(C=2)[C@@H](C)[C@@H]3CCC(=O)OC)[C@@H](C(=O)OC)C5=O)C(CC)=C1C` [ZnPPaM], for which the Kd came out at 300 nM at SP2, 800 nM on SP3 and 290 nM on SP1.

What is called Kd is the equilibrium constant for the complex coming apart. The low end stands for higher affinity, the high end for lower affinity.
